Drawing on PMC11864979, “First-in-class ultralong-target-residence-time p38α inhibitors as a mitosis-targeted therapy for colorectal cancer” (Nature Cancer, 2025), this text covers remaining activity for one compound.

Where two headings read alike, the source gives them in different places.

Test in all cases: selectivity profiling in a panel of 340 wild-type kinases (Reaction Biology Europe)
Format in all cases: binding

The target of assay [1] is T1, 340 wild-type kinases (Homo sapiens, UniProt P68400).
T1 construct: purchased Reaction Biology Europe
T1 sequence (P68400 whole entry): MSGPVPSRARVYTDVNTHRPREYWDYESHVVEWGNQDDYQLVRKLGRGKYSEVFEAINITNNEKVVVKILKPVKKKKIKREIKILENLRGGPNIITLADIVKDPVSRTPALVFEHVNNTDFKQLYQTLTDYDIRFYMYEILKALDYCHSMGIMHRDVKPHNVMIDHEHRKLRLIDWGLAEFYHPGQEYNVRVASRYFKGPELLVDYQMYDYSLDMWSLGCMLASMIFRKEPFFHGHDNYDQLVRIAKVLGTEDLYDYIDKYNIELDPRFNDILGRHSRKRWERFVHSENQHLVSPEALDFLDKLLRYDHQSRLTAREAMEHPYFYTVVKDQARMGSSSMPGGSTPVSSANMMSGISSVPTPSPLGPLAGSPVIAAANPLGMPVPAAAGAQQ

The target of assay [2] is T2, 340 wild-type kinases (Homo sapiens, UniProt Q7KZI7).
T2 construct: purchased Reaction Biology Europe
T2 sequence (Q7KZI7 whole entry): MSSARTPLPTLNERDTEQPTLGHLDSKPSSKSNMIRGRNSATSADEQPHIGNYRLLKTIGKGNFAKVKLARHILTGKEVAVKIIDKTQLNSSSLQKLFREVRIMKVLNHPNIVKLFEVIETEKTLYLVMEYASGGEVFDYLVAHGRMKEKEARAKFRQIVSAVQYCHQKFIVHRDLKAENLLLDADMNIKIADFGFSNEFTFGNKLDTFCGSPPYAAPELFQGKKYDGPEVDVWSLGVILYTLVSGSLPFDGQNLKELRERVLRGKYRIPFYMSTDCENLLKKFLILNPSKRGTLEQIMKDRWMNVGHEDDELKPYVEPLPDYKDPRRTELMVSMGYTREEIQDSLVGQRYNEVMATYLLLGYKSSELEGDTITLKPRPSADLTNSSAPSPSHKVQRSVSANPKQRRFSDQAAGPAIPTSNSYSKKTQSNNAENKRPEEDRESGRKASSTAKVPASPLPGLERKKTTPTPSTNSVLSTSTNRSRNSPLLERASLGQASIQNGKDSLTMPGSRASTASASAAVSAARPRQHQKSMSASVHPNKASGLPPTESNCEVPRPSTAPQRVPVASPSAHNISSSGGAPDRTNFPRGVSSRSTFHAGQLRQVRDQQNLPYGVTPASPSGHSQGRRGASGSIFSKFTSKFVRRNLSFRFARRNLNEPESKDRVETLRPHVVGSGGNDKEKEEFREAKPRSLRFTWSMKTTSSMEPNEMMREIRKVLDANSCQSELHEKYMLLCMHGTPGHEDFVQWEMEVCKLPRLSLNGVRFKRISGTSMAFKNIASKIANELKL

Assay [3] has as its target T3, 340 wild-type kinases (Homo sapiens, UniProt Q12851).
T3 construct: purchased Reaction Biology Europe
T3 sequence (Q12851 1-820): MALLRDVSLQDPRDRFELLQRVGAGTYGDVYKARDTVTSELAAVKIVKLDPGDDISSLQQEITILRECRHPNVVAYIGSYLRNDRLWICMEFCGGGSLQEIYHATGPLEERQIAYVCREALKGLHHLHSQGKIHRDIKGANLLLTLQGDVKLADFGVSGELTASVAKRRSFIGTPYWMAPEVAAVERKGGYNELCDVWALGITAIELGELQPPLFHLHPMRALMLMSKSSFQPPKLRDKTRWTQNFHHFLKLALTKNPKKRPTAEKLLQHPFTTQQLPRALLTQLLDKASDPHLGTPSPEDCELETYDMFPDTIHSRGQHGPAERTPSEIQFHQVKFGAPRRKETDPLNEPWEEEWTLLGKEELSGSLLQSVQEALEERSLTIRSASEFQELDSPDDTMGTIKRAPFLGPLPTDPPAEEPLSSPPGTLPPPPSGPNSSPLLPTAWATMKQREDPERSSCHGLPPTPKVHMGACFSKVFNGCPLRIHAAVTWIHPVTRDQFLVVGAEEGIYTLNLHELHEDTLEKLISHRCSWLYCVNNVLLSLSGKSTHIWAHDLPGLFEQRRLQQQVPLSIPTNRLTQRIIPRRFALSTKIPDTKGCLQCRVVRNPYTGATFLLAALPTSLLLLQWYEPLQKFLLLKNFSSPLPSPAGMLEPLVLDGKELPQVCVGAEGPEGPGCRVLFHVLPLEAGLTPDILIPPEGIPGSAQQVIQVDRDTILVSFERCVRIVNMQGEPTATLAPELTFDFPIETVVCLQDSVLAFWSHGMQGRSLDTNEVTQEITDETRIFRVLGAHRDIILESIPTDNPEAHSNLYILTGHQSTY

For assay [4], the target named is T4, 340 wild-type kinases (Homo sapiens, UniProt P51813).
T4 construct: purchased Reaction Biology Europe
T4 sequence (P51813 1-675): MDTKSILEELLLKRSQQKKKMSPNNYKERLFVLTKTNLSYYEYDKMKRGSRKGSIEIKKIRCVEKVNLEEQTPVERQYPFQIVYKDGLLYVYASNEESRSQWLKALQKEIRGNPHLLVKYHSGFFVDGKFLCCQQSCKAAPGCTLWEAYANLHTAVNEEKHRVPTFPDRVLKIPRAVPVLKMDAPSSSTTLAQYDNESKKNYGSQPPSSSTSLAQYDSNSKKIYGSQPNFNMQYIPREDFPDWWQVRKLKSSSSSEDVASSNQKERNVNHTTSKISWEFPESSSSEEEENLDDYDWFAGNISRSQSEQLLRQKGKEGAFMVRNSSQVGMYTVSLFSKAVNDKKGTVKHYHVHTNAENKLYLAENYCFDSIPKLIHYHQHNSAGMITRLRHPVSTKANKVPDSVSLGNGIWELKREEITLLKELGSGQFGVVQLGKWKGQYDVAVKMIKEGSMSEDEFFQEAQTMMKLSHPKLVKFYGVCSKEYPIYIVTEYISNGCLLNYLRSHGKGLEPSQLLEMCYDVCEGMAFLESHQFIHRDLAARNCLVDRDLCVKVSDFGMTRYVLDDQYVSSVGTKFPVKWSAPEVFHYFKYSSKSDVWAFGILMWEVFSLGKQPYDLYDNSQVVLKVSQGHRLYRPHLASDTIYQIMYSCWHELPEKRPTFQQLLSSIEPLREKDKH

The target in assay [5] is T5, 340 wild-type kinases (Homo sapiens, UniProt P19784).
T5 construct: purchased Reaction Biology Europe
T5 sequence (P19784 whole entry): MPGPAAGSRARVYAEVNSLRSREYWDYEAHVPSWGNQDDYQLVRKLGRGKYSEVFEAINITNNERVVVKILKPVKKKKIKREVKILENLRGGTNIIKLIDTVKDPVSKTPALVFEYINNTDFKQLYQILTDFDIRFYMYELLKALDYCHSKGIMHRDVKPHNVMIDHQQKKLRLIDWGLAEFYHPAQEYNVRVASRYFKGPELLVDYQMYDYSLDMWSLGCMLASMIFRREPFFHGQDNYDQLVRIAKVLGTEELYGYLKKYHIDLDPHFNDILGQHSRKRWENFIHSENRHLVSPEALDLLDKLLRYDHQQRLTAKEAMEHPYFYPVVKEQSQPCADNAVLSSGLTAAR

As to `CNC(=O)c1ccc2c(c1)C(=O)c1ccc(Nc3ccc(F)c(NC(=O)C4CC4)c3)cc1CC2` [Compound 2015], the remaining activity at 0.2 µM on 340 wild-type kinases [1] (0.2 µM 2015, read-out: CK2alpha1 residual activity) came out at 98.8%; on 340 wild-type kinases [1] (CK2alpha1, 0.2 µM, read-out: residual activity), 98.8%; at 340 wild-type kinases [2] (0.2 µM 2015, read-out: MARK2 residual activity), 101%; at 340 wild-type kinases [2] (MARK2, 0.2 µM, read-out: residual activity), 101%; at 340 wild-type kinases [3] (0.2 µM 2015, read-out: MAP4K2 residual activity), 109%; at 340 wild-type kinases [3] (MAP4K2, 0.2 µM, read-out: residual activity), 109%. Also, the remaining activity at 0.2 µM at 340 wild-type kinases [4] (0.2 µM 2015, read-out: BMX residual activity) came to 96.3%; on 340 wild-type kinases [4] (BMX, 0.2 µM, read-out: residual activity) it was 96.3%; at 340 wild-type kinases [5] (0.2 µM 2015, read-out: CK2alpha2 residual activity), 102%; on 340 wild-type kinases [5] (CK2alpha2, 0.2 µM, read-out: residual activity), 102%. Further, the remaining activity at 1 µM on 340 wild-type kinases [1] (1 µM 2015, read-out: CK2alpha1 residual activity) came out at 95.8%; at 340 wild-type kinases [1] (CK2alpha1, 1 µM, read-out: residual activity), 95.8%; at 340 wild-type kinases [2] (1 µM 2015, read-out: MARK2 residual activity), 99.5%; on 340 wild-type kinases [2] (MARK2, 1 µM, read-out: residual activity) it was 99.5%; at 340 wild-type kinases [3] (1 µM 2015, read-out: MAP4K2 residual activity) it was 104%; at 340 wild-type kinases [3] (MAP4K2, 1 µM, read-out: residual activity) it was 104%. The remaining activity at 1 µM on 340 wild-type kinases [4] (1 µM 2015, read-out: BMX residual activity) is 86.5%; at 340 wild-type kinases [4] (BMX, 1 µM, read-out: residual activity), 86.5%; on 340 wild-type kinases [5] (1 µM 2015, read-out: CK2alpha2 residual activity) it was 97.2%; on 340 wild-type kinases [5] (CK2alpha2, 1 µM, read-out: residual activity), 97.2%.
